“Also recorded” adds a separate entry of the source.
What was measured:
[1] = test system: sheep model for pulmonary fibrosis, bleomycin-injured lung segments; test: Example 2: segmental lung compliance (Cseg) in bleomycin-injured sheep lung segments; type: in vivo
Experimental: Segmental compliance (Cseg) was assessed using pressure responses to flow in the different segments as indicated FIG. 2 in awake, consciously breathing sheep using a wedged-bronchoscope technique. Briefly, a custom-built Segmental Lung Airway Monitoring (SLAM) System was used to monitor the segmental flow and pressure. After first determining the bronchoscope resistance to the set flow, the bronchoscope was wedged into an airway in the lung segment of interest and a constant flow (6 mL/s) of 5% C02 in air was passed through the working channel of the bronchoscope.
Segmental lung compliance was calculated. Briefly, after the bronchoscope was wedged into the specific region of the lung, pressure was allowed to reach a steady state. After approximately 5 s at steady state, airflow was interrupted turning off the airflow supply. Segmental compliance was then calculated from the pressure-flow decay curve generated from this procedure. The process was repeated 3 times for each segment and expressed as an average value for Cseg. The pressure was recorded by a PM-1000 Transducer Amplifiers (CWE Inc., Admore, USA) and flow was recorded using a mass flow meter (824-S, Sierra Instruments, Monterey, USA). Data were acquired with Data Acquisition Card (PCI-6233; National Instruments Corp., Austin, USA) and was analysed with the SLAM system (Latitude E6520, Dell Computer Corporation, Texas USA and LabVIEW, National Instruments Corp., Austin, USA). All resistance measurements were corrected for the resistance of flow through the working channel of the bronchoscope.
(§1) In this study, a total of 10 sheep were used. Fibrosis in two lung segments of each sheep in a similar manner as performed in Example 1 herein. Using this procedure (as detailed further below) the fibrosis was confined to small, isolated regions in the lungs leaving the remaining 90-95% of the healthy unaffected lungs to undertake normal respiratory function.
All sheep (n=10) in the study were challenged with 2 single doses of bleomycin (3 units) per lung segment, a fortnight apart and the animals were kept for a little over 5 weeks after the final bleomycin dose. Bleomycin is a well-known agent for inducing fibrosis in the lungs. The administration procedure involves inserting a bronchoscope into lung segments in the right and left lung, and then slowly infusing the bleomycin into two segments as shown in FIG. 2 via the bronchoscope biopsy port. […]
Lung function was assessed in all test lung-segments (left and right caudal lobes, and medial lobe in each sheep). The functional capacity of the lung segments was measured through the endoscope using the procedure outlined in Example 1 herein. The lung function parameter assessed in this study is referred to as compliance in the lung segment (abbreviated to Cseg). […]

[2] = test system: sheep model for pulmonary fibrosis, bleomycin-injured lung segments; test: Example 2: histopathology scoring (H&E; inflammation, fibrosis, overall pathology); type: in vivo
Experimental: Histopathology of lung parenchyma was assessed by an experienced pathologist blinded to the treatment groups using a semi-quantitative scoring system. Briefly, the criteria used gives score indices separately for both inflammation and fibrosis pathology, and these score indices added together give an ‘overall pathology score’.
as §1
All sheep (n=10) in the study were challenged with 2 single doses of bleomycin (3 units) per lung segment, a fortnight apart and the animals were kept for a little over 5 weeks after the final bleomycin dose. Bleomycin is a well-known agent for inducing fibrosis in the lungs. The administration procedure involves inserting a bronchoscope into lung segments in the right and left lung, and then slowly infusing the bleomycin into two segments as shown in FIG. 2 via the bronchoscope biopsy port.
(§2) In the study detailed in Example 1 herein, the dose-rate of pinocembrin was 7 mg pinocembrin per sheep, per week.
(§3) For control purposes the lung segment in the opposite lung was used as a bleomycin-positive, without drug, control, as indicated in FIG. 1. The bioactive molecules in vehicle, were delivered as 5 ml infusions through the biopsy port of the bronchoscope. Note that to nullify any small differences (e.g. physiological or anatomical etc.) between the left and right lungs, the infusions of pinocembrin were randomized between the left and right caudal lung segments. Half the animals (5 sheep) received pinocembrin to the right caudal lung segments, while the other 5 sheep received pinocembrin to the left caudal lung segments. The right medial lung segment was left untreated and used for healthy lung control tissue which was sampled at autopsy (FIG. 2).
Following euthanasia, the lungs were removed, and targeted lung-segments identified and carefully dissected free from surrounding tissue. Individual segments were then inflated with a 1:1 mixture of Optimal Cutting Temperature Compound (OCT, ProSciTech Ltd Pty) and sterile PBS solution, under pressure of approximately 20 cm/H2O. Several serial transverse sections of the inflated segment were fixed in 10% neutral-buffered formalin and processed in paraffin for histopathological assessment. Remaining lung slices were embedded in OCT and frozen in cryo-moulds on aluminium boats floating on liquid nitrogen for immunochemistry analyses.
Paraffin-embedded tissue sections (5 μm) were stained with haematoxylin and eosin Y (H&E) for general histology and with Masson's trichrome staining to identify changes to collagen content within the lung parenchyma.
Histopathology of the lung parenchyma was assessed using a semi-quantitative scoring system as outline in Example 1 herein. […] For each H&E stained section, 10 consecutive, non-overlapping fields at ×20 magnification were graded based on the scoring criteria for fibrosis, inflammation and overall pathology scores as outlined in Example 1 herein. The areas were selected away from large airways and major blood vessels. Scores from all ten fields were then averaged to give representative scores for the parameters assessed in the sectioned lung segment.

[3] = test system: sheep model for pulmonary fibrosis, bleomycin-injured lung segments; test: Example 2: Masson's trichrome assay of connective tissue content; type: in vivo
Excerpt: as §1
All sheep (n=10) in the study were challenged with 2 single doses of bleomycin (3 units) per lung segment, a fortnight apart and the animals were kept for a little over 5 weeks after the final bleomycin dose. Bleomycin is a well-known agent for inducing fibrosis in the lungs. […]
The degree of fibrosis was quantified by assessing the changes in overall connective tissue content within the parenchymal tissue using methods known to the skilled person. […] The images were then analysed using Image-Pro® Plus (Version 6.3 for Windows, Media Cybernetics, Bethesda, Md., USA) using the ‘colour selector’ tool to measure the area of blue-stained tissues (collagen and other connective tissues) within each field of view. […] The fraction of blue stained tissue area was expressed as a percentage per total field area (percentage of blue stained tissue area per total field area). […]

sheep = test: Example 2: animal health and safety of pinocembrin administration; type: in vivo
Experimental: as §2, §3
The sheep were bled at the times indicated in FIG. 1 by sampling 10 ml of blood from the jugular vein into a tube containing heparin. The blood was processed for blood cell count analyses.
Health checks were routinely performed throughout the treatment periods and throughout the trial until euthanasia.

[4] = soxhlet extraction of dry leaves with n-hexane or methanol; cited from earlier work
[5] = individual sheep data, 10 sheep
[6] = vs segments which received bleomycin infusion only, 4 weekly treatments of 7 mg, n=10 sheep
[7] = pinocembrin treatment period, 10 sheep
[8] = throughout the pinocembrin treatment period, 10 sheep

Compound: O=C1CC(c2ccccc2)Oc2cc(O)cc(O)c21 (stereo not shown) [pinocembrin, 5,7-Dihydroxy-2-Phenyl-2,3-Dihydro-4H-Chromen-4-One]
- lung function in lung segments injured by bleomycin (summary) ([1]; 4 weekly doses of 7 mg, n=10 sheep): significantly improved
- sheep with improved function (Cseg) in bleomycin-damaged, pinocembrin-treated lung segments ([1]; individual sheep data, 4 weekly infusions of 7 mg, 10 sheep): eight out of ten
- percentage change in compliance from baseline ([1]; week 0 to week 11, after four weekly administrations, n=10 sheep): significantly improved
- mean segmental compliance (Cseg) compared with untreated healthy control lung segments ([1]; week 11, 7 mg in 10% DMSO infused into bleomycin-injured caudal segment, 4 weekly doses, n=10 sheep): not significantly different from the untreated healthy control lung segments
- sheep having improved fibrosis scores [2, 5]: eight out of ten
- sheep having improved inflammation scores [2, 5]: nine out of ten
- sheep having improved overall pathology scores [2, 5]: Nine out of ten
- fibrosis score (histopathology), difference ([2]; lower than segments which received bleomycin infusion only, 4 weekly treatments of 7 mg, n=10 sheep): not statistically significant
- pathology scores (all three parameters) compared with untreated control lung segments ([2]; pinocembrin-treated bleomycin segments vs untreated control segments, n=10 sheep): significantly higher
- inflammation score (histopathology) [2, 6]: significantly lower; also recorded: significantly improved
- overall pathology score (histopathology) [2, 6]: significantly lower; also recorded: significantly improved
- sheep with decreased percentage blue values ([3]; individual sheep data, vs bleomycin injury without pinocembrin, 10 sheep): nine out of ten
- percentage blue staining, Masson's Trichrome stained connective tissue ([3]; vs bleomycin-infused lung without pinocembrin, 4 weekly treatments of 7 mg, n=10 sheep): significantly reduces; also recorded: significant decrease; also recorded: significantly lower
- untoward health effects (clinical assessment criteria) (sheep; all ten sheep undergoing the trial): no untoward health effects
- differential counts of blood leukocytes (sheep; both sampling time points, 10 sheep): within normal ranges
- additional pathology or lung damage in pinocembrin exposed segments (sheep; lung segment exposed to pinocembrin, post-mortem): no obvious signs of additional pathology or lung damage
- adverse health events (sheep; [7]): no otherwise adverse health events
- weight gain (sheep; [7]): expected normal range
- core temperature readings (sheep; [8]): within the normal range
- heart, and respiratory rates (sheep; [8]): within normal ranges
- animal health during treatment period (sheep; week 8 to week 12, 7 mg per sheep per week into one lung segment, 10 sheep): remained healthy
- temperature survived for extended periods [4]: up to 68 °C

— patent US20230172901A1, “COMPOSITIONS AND METHODS FOR THE PROPHYLAXIS AND TREATMENT OF FIBROTIC AND INFLAMMATORY CONDITIONS” (GRETALS AUSTRALIA PTY LTD, priority 2020, published 2023)
